What is called Ki is a measure of affinity in units of concentration, obtained from inhibition or displacement. Low readings indicate tighter binding, high ones weaker binding.

The text below walks through data of BindingDB's records for doi:10.1021/bi401014k (Texas A&M University, 2013).

Common to all, as to assay: ANS Fluorescence Displacement Assay
In experiment [1] the target is T1, Fatty acid-binding protein, liver (Homo sapiens, UniProt P07148).
T1 sequence (P07148 whole entry): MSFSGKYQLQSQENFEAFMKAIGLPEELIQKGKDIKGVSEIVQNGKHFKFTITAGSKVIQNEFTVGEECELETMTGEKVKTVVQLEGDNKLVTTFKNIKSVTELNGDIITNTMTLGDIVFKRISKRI
How it is done:
(§1) A solution of the L-FABP (500 nM) and ANS (35 µM) was titrated with phytanic acid (0-6.4 µM) or fenofibrate (0-6 µM for the rat L-FABP and 0-4 µM for the human L-FABP) or fenofibric acid (0-300 µM for the rat L-FABP and 0-48 µM for the human L-FABP).

For experiment [2], the target named is T2, Fatty acid-binding protein, liver (Rattus norvegicus, UniProt P02692).
T2 sequence (P02692 whole entry): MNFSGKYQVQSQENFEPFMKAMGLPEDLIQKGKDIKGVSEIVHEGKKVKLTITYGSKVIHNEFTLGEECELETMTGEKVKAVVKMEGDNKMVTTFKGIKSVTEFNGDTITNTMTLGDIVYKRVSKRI
How it is done:
as §1

The target in experiment [3] is Fatty acid-binding protein, liver [T94A] (Homo sapiens, UniProt P07148, T94A). How it is done:
as §1

Chain of Fatty acid-binding protein, liver [T94A] (P07148 whole entry T94A): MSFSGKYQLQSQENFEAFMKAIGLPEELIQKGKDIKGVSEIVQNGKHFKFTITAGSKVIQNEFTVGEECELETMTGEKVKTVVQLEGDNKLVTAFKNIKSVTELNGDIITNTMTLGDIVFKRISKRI

As to `CC(C)CCC[C@H](C)CCC[C@H](C)CCC[C@@H](C)CC(=O)O` [3,7,11,15-tetramethylhexadecanoic acid], the inhibition constant (Ki) was 35 nM in experiment [1], 37 nM in experiment [2] and 38 nM in experiment [3].

Consider `CC(C)OC(=O)C(C)(C)Oc1ccc(C(=O)c2ccc(Cl)cc2)cc1` [Finofibrate], for which the Ki in experiment [1] came out at 15 nM; in experiment [2], 100 nM; in experiment [3], 15 nM.

Consider `CC(C)(Oc1ccc(C(=O)c2ccc(Cl)cc2)cc1)C(=O)O` [alpha-1081], for which the figures for the Ki in experiment [1], in experiment [2] and in experiment [3] were 250 nM, 5800 nM and 310 nM, respectively.
